Test results published in patent publication US20250302967A1, “PEPTIDE FORMULATIONS AND USES THEREOF” (Amytrx Therapeutics, Inc., priority 2022, published 2025).
Positions of bridges follow the written chain, without caps; N, C: chain ends. Residues, ends and D or L forms follow the SMILES beside them.

Legend:
[1] = tested on: Phorbol Myristoyl Acetate (PMA)-induced skin inflammation; type: in vivo; details: mouse
Excerpt: The anti-inflammatory efficacy of Compound 1 on a Phorbol Myristoyl Acetate (PMA)-induced skin inflammatory mouse model (irritant contact dermatitis) is shown following topical application of a formulation including Compound 1 herein.

[2] = 7-day repeat dose tolerance dermal study in Gottingen Mini-Pigs (non-GLP); type: in vivo
Excerpt: The purpose of this study was to evaluate the dermal dose tolerance at the maximum feasible dose (concentration and application rate) of Compound 1 in Formulation 1, Formulation 2, or Formulation 3 of Table 2, including placebo (F1, F2, or F3 without Compound 1) when applied by topical dermal application to Gottingen Mini-Pigs twice daily for seven days.
Three experimentally naive male Gottingen Mini-Pigs, 4-5 months old and weighing 10.6-13.8 kilograms at the outset of the study had four dose sites (100 cm^2 per site) numbered 1, 2, 3, and 4. The dose sites were not rotated.
Animals were dosed with all formulations twice daily (two doses per site per day; 6 hours+/−30 minutes between the first and second dose for 7 days). Mortality/morbidity was performed twice daily and once on the day of scheduled euthanasia. On Days 1-7 animals were observed prior to dosing and at 1-2 hours post-dose. A final observation was recorded on Day 8 prior to scheduled euthanasia. Body weights were recorded on Days 1 and 7. Food consumption was determined daily. Blood for toxicokinetic evaluation was collected on Days 1 and 7 at 0.5, 1, 2, 4, 6, 8 and 24 hours post-dose. […] Animals were sacrificed on Day 8 and a gross necropsy was performed. The dosing area (skin) was collected and preserved.

[3] = tested on: mild to moderate atopic dermatitis; type: in vivo, human
Protocol: 26 subjects having mild to moderate atopic dermatitis and about 3-70% treatable body surface area (BSA) were enrolled in the study. […] Dosing was targeted at 0.62 g/kg/day of the formulation or 6.82 mg/kg/day of Compound 1. Based on an average body weight of 60 kg, and average BSA of 1.62 m2, a recommended starting dose of 2.5 g of a formulation (for example, Formulation 1 or 4; Formulations 2, 3, 5, and 6 may be dosed higher due to the lower concentration of Compound 1) is proposed as a starting point. Severity of atopic dermatitis (vIGA-AD score), treatable BSA, and the following 11 signs and symptoms were assessed: dryness, erythema, burning/stinging, erosion/ulceration, edema/swelling, itching, pain treated area, crusting, vesiculation, flaking/scaling, and bleeding.

[4] = at EOT or at 2-week follow-up visit

CSCC[C@@H]1NC(=O)[C@H](CC(C)C)NC(=O)[C@H](CCCCN)NC(=O)[C@H](CCC(N)=O)NC(=O)[C@H](CCCNC(=N)N)NC(=O)[C@H](CCCCN)NC(=O)[C@H](CCCNC(=N)N)NC(=O)[C@H](CCC(N)=O)NC(=O)[C@H](C(C)C)NC(=O)[C@@H](NC(=O)[C@@H]2CCCN2C(=O)[C@H](C)NC(=O)[C@H](CC(C)C)NC(=O)[C@H](CC(C)C)NC(=O)[C@H](C)NC(=O)[C@H](CC(C)C)NC(=O)[C@H](CC(C)C)NC(=O)[C@@H](NC(=O)[C@H](C)NC(=O)[C@@H]2CCCN2C(=O)[C@H](CC(C)C)NC(=O)[C@H](CC(C)C)NC(=O)[C@H](C)NC(=O)[C@@H](NC(=O)[C@H](C)NC(=O)[C@H](C)N)C(C)C)C(C)C)CSSC[C@@H](C(=O)O)NC(=O)[C@@H]2CCCN2C1=O [Compound 1] (H-AAVALLPAVLLALLAPCVQRKRQKLMPC-OH; disulfide 17-28)
swelling and cellular infiltration in ear punch biopsies induced by PMA ([1]; 8 h post-challenge): reduced
skin wound healing and hair re-growth after repeated surgical trauma ([1]; in vivo): does not impede
inflammatory cell infiltration in skin biopsies in response to PMA ([1]; topical formulation, dose-dependent treatment): reduced
ear swelling (ear thickness of intact ears) induced by PMA ([1]; topical treatment): attenuated
dermal tolerance ([2]; male mini-pigs, 0, 0.11, 0.33, 1.1% w/w applied topically twice daily for 7 consecutive days): tolerated
no-observed-adverse-effect level (NOAEL) ([2]; male mini-pigs, highest dose tested: 0.75 grams of formulation applied twice daily for 7 days): 1.1 % w/w
early deaths (mortality) ([2]; male mini-pigs, topical 0.11, 0.33, 1.1% w/w (F3, F2, F1), 0.75 g per site twice daily for 7 days): no early deaths
clinical signs or dermal effects ([2]; male mini-pigs, topical 0.11, 0.33, 1.1% w/w, twice daily for 7 days): no clinical signs or dermal effects noted
dermal irritation ([2]; minipig, in vivo): no signs of dermal irritation
general signs of toxicity ([2]; minipig, in vivo): no general signs of toxicity
11 signs and symptoms of AD scored from patient diaries ([3]; 1.1% as Formulation 4, BID for 7 days): net negative score
subjects whose vIGA-AD score worsened 2 units ([3]; at 2-week follow up): 0 subjects
subjects whose EOT vIGA-AD score worsened 1 unit ([3]; at 2-week follow up (3 subjects)): 13%
subjects with improvement in vIGA-AD scores of 2 units ([3]; at 2-week follow up (10 subjects)): 44%
subjects with 0-clear or 1-almost clear skin ([3]; at 2-week post treatment): 61%
subjects with improved vIGA-AD scores of 2 units ([3]; at EOT (6 subjects)): 26%
subjects with 0-clear or 1-almost clear vIGA-AD scores ([3]; at EOT (BID for 7 days)): 57%
patients responding (reduction in treatable BSA or decrease in vIGA-AD severity score, or both) [3, 4]: 24 of 26
reduction in size of treatable BSA in responders [3, 4]: 20-100%
adverse events (AEs) ([3]; in vivo): no adverse events
tolerability ([3]; in vivo): well tolerated
